Counter-ions that a name gives are not always drawn.
Key:
[1] = system: rat hearts; settings: isolated rat hearts; Eur. Heart J. 9 (suppl. 1): 167 (1988); cited from earlier work
[2] = target: T1, Na^+ /H^+ exchanger of rabbit erythrocytes (Oryctolagus cuniculus, UniProt P23791); assay: Inhibition of the Na^+ /H^+ exchanger of rabbit erythrocytes (amiloride-sensitive sodium influx, flame photometry); type: cell-based; settings: pH 7.4, 37° C., cholesterol-fed White New Zealand rabbits
T1 construct: from tissue; host or cells: rabbit blood (erythrocytes), White New Zealand rabbits
Description: Inhibition of the Na^+ /H^+ exchanger of rabbit erythrocytes:
White New Zealand rabbits (Ivanovas) received a standard diet containing 2% cholesterol for six weeks in order to activate Na^+ /H^+ exchange and thus to be able to determine the Na^+ influx into the erythrocytes via Na^+ /H^+ exchange by flame photometry. The blood was taken from the ear arteries and anticoagulated by 25 IU/ml potassium heparin. A portion of each sample was used for duplicate determination of the hematocrit by centrifugation. Aliquots each of 100 μl were used to measure the initial Na^+ content of the erythrocytes.
In order to determine the amiloride-sensitive sodium influx, 100 μl of each blood sample were incubated in each case in 5 ml of a hyperosmolar salt/sucrose medium (mmol/l: 140 NaCl, 3 KCl, 150 sucrose, 0.1 ouabain, 20 tris-hydroxymethylaminomethane) at pH 7.4 and 37° C. The erythrocytes were then washed three times with ice-cold MgCl2 /ouabain solution (mmol/l: 112 MgCl2, 0.1 ouabain) and hemolyzed in 2.0 ml of distilled water. The intracellular sodium content was determined by flame photometry.
The net Na^+ influx was calculated from the difference between the initial sodium levels and the sodium content of the erythrocytes after incubation. The sodium influx which can be inhibited by amiloride was found from the difference in the sodium content of the erythrocytes after incubation with and without amiloride 3×10^-4 mol/l. The compounds according to the invention were also subjected to this process.

[3] = system: cardiac rhythm disturbances; settings: cited from earlier work

T1 sequence (P23791 whole entry): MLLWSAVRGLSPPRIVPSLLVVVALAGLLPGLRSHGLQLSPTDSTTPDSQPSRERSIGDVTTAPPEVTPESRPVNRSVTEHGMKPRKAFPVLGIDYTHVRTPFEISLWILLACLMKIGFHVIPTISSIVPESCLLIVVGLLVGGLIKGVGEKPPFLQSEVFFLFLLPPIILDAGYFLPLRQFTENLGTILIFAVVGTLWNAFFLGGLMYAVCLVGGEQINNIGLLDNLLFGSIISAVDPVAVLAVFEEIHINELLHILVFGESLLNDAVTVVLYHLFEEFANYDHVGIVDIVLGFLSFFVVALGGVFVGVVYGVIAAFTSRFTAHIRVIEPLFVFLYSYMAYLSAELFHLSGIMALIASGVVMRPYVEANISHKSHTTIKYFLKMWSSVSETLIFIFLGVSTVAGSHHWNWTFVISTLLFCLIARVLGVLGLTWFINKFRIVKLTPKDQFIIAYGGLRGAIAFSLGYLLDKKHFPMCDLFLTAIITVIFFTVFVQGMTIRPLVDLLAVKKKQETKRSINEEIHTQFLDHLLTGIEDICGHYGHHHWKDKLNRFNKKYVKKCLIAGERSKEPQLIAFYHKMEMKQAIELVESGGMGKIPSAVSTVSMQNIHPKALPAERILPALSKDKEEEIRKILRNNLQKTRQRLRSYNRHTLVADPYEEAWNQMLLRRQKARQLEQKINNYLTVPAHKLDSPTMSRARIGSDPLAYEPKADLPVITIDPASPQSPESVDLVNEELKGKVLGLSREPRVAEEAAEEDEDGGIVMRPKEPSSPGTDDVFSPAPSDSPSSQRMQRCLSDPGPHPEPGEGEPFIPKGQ

IC50 [2]	Structure (SMILES)	suppression of artificially induced ventricular fibrillation [1]	antiarrhythmic effect ([3]; Circulation 79, 1257-63 (1989))	accompanying side effects ([3]; in vivo)
–	CCN(c1nc(N)c(C(=O)NC(=N)N)nc1Cl)C(C)C [ethylisopropylamiloride]	Even more potent than amiloride	–	–
< 1000 nM	NC(N)=NC(=O)C=Cc1cccc(C(F)(F)F)c1 [Example 1, Meta-Trifluoromethylcinnamic Acid Guanidide Hydrochloride]	–	–	–
< 1000 nM	C/C(=C\c1cccc(C(F)(F)F)c1)C(=O)N=C(N)N [Example 3, Trans-2-Methyl-3-(3-Trifluoromethylphenyl)-Acrylic Acid Guanidide]	–	–	–
–	N=C(N)NC(=O)c1nc(Cl)c(N)nc1N [amiloride]	completely to suppress artificially induced ventricular fibrillation	only weak	blood pressure-lowering and saluretic effect
< 1000 nM	C/C(C(=O)N=C(N)N)=C(/C)c1cc(C(F)(F)F)ccc1F [Example 10, Trans-2,3-Dimethyl-3-[2-Fluoro-5-Trifluoromethyl-Phenyl]-Acrylic Acid Guanidide]	–	–	–

Reference: US6025349A, “Phenyl.-substituted alkenylcarboguanidides carrying perfluoroalkyl groups, a process for their preparation, their use as a medicament or diagnostic agent, and also a medicament containing them” (priority 1994, dated 2000)
